Experimental findings from US8076487B2, “Pyridone derivative and herbicide” (Kumiai Chemical Industry Co., Ltd., priority 2006, dated 2011) are described below.

Holding throughout (type): in vivo
The test system of test [1] is Japanese bulrush (Scirpus juncoides Roxb.). As to the kind of experiment: Test Example 1: herbicidal effect by soil application to paddy field. Conditions: paddy field soil application; active ingredient 1,000 g per 1 hectare; wettable powder added dropwise to water surface the day after sowing; examined on the 21st day after application. The method in brief: (§1)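 Plants were sown in flooded (3 cm) paddy soil and evaluated for herbicidal effect 21 days after soil application in a greenhouse.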

Test [2] deals with early watergrass (Echinochloa oryzicola Vasing). The test is described as above. The following applies: paddy field soil application; active ingredient 1,000 g per 1 hectare; wettable powder added dropwise to water surface the day after sowing; examined on the 21st day after application. The essentials:
as §1

Test [3] concerns heartshape false pickerelweed (Monochoria vaginalis (Burm.f.) C.Presl). Described as above. The following applies: paddy field soil application; active ingredient 1,000 g per 1 hectare; wettable powder added dropwise to water surface the day after sowing; examined on the 21st day after application. The method in brief:
as §1

Test [4] has as its system barnyardgrass (Echinochloa crus-galli (L.) P. Beauv. var. crus-galli). As to the kind of experiment: Test Example 2: herbicidal effect by soil application to upland field. Conditions: soil surface spray, upland field soil, 1,000 g active ingredient per hectare, 21st day after application. The method in brief: (§2)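 Seeds were sown in field soil, covered, and the soil surface sprayed with a water-diluted wettable powder at 1,000 g active ingredient per hectare in 1,000 L/ha. Plants grew in a greenhouse, and herbicidal effect was rated against a standard scale 21 days after application.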

Test [5] deals with green foxtail (Setaria viridis (L.) P. Beauv.). The description is as above. Conditions: soil surface spray, upland field soil, 1,000 g active ingredient per hectare, 21st day after application. The method in brief: as §2
Test [6] relates to slender amaranth (Amaranthus viridis L.). The description is as above. The following applies: soil surface spray, upland field soil, 1,000 g active ingredient per hectare, 21st day after application. The method in brief: as §2
Test [7] relates to velvetleaf (Abutilon theophrasti medicus). The description is as above. Conditions: soil surface spray, upland field soil, 1,000 g active ingredient per hectare, 21st day after application. The method in brief:
as §2

For test [8], the system named is barnyardgrass (Echinochloa crus-galli (L.) P. Beauv. var. crus-galli). As to the kind of experiment: Test Example 3: herbicidal effect by application to upland field (foliage treatment). Conditions: foliage treatment, 1,000 g active ingredient per 1 hectare, 14th day after application, greenhouse. The method in brief:
(§3)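 Greenhouse-grown plants, two weeks old in field soil, were treated by spraying their foliage with a water dilution of wettable powder. Rate: 1,000 g active ingredient in a 1,000 L/ha equivalent volume. Assessment followed at 14 days.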

Test [9] deals with green foxtail (Setaria viridis (L.) P. Beauv.). Described as above. The following applies: foliage treatment, 1,000 g active ingredient per 1 hectare, 14th day after application, greenhouse. The essentials: as §3
The test system of test [10] is slender amaranth (Amaranthus viridis L.). The description is as above. Conditions: foliage treatment, 1,000 g active ingredient per 1 hectare, 14th day after application, greenhouse. The method in brief:
as §3

The subject of test [11] is velvetleaf (Abutilon theophrasti medicus). The test is described as above. The following applies: foliage treatment, 1,000 g active ingredient per 1 hectare, 14th day after application, greenhouse. The method in brief:
as §3

Molecules are shown by their SMILES.

Take `COCCn1c(C(F)(F)F)ccc(C(=O)c2cnn(C)c2O)c1=O` [IV-33]: the “herbicidal effect, Scirpus juncoides Roxb.” value in [1] was 5 (90% or more of herbicidal effect and crop phytotoxicity). Further, the “herbicidal effect, Echinochloa oryzicola Vasing” value in [2] is 5 (90% or more of herbicidal effect and crop phytotoxicity). Besides, in test [3], the “herbicidal effect, Monochoria vaginalis (Burm. f.) C. Presl” value (“herbicidal effect, Monochoria vaginalis” for short) is 5 (90% or more of herbicidal effect and crop phytotoxicity). Besides, in [4], the “herbicidal effect (index), Barnyardgrass” value was 5 (90% or more of herbicidal effect and crop phytotoxicity). Besides, in test [5], the “herbicidal effect (index), Green Foxtail” value was 5 (90% or more of herbicidal effect and crop phytotoxicity). Besides, the “herbicidal effect (index), Slender Amaranth” value in test [6] is 5 (90% or more of herbicidal effect and crop phytotoxicity). In addition, in test [7], the “herbicidal effect (index), Velvetleaf” value is 5 (90% or more of herbicidal effect and crop phytotoxicity). Also, the “herbicidal effect, Barnyardgrass” value in test [8] is 5 (90% or more of herbicidal effect and crop phytotoxicity). For the same compound, the “herbicidal effect, Green Foxtail” value in [9] is 5 (90% or more of herbicidal effect and crop phytotoxicity). The “herbicidal effect, Slender Amaranth” value in test [10] was 5 (90% or more of herbicidal effect and crop phytotoxicity). Besides, the “herbicidal effect, Velvetleaf” value in [11] was 5 (90% or more of herbicidal effect and crop phytotoxicity).
With `CCOCCn1c(C(F)(F)F)ccc(C(=O)c2cnn(C)c2O)c1=O` [IV-34], the “herbicidal effect, Scirpus juncoides Roxb.” value in test [1] was 5 (90% or more of herbicidal effect and crop phytotoxicity). For the same compound, in test [2], the “herbicidal effect, Echinochloa oryzicola Vasing” value is 5 (90% or more of herbicidal effect and crop phytotoxicity). Besides, the “herbicidal effect, Monochoria vaginalis” value in test [3] is 5 (90% or more of herbicidal effect and crop phytotoxicity). For the same compound, the “herbicidal effect (index), Barnyardgrass” value in [4] was 5 (90% or more of herbicidal effect and crop phytotoxicity). In [5], the “herbicidal effect (index), Green Foxtail” value was 5 (90% or more of herbicidal effect and crop phytotoxicity). For the same compound, the “herbicidal effect (index), Slender Amaranth” value in test [6] is 5 (90% or more of herbicidal effect and crop phytotoxicity). The “herbicidal effect (index), Velvetleaf” value in test [7] was 5 (90% or more of herbicidal effect and crop phytotoxicity). In addition, in test [8], the “herbicidal effect, Barnyardgrass” value was 5 (90% or more of herbicidal effect and crop phytotoxicity). For the same compound, in test [9], the “herbicidal effect, Green Foxtail” value was 5 (90% or more of herbicidal effect and crop phytotoxicity). For the same compound, the “herbicidal effect, Slender Amaranth” value in [10] was 5 (90% or more of herbicidal effect and crop phytotoxicity). For the same compound, in test [11], the “herbicidal effect, Velvetleaf” value was 5 (90% or more of herbicidal effect and crop phytotoxicity).
On to `CCOCCn1c(C(F)(F)F)ccc(C(=O)c2cnn(C)c2OC(=O)c2ccccc2)c1=O` [IV-35], for which the “herbicidal effect, Scirpus juncoides Roxb.” value in test [1] was 5 (90% or more of herbicidal effect and crop phytotoxicity). Also, the “herbicidal effect, Echinochloa oryzicola Vasing” value in test [2] is 5 (90% or more of herbicidal effect and crop phytotoxicity). In addition, the “herbicidal effect, Monochoria vaginalis” value in test [3] is 5 (90% or more of herbicidal effect and crop phytotoxicity). Also, in [4], the “herbicidal effect (index), Barnyardgrass” value was 5 (90% or more of herbicidal effect and crop phytotoxicity). Moreover, in test [5], the “herbicidal effect (index), Green Foxtail” value was 5 (90% or more of herbicidal effect and crop phytotoxicity). In addition, the “herbicidal effect (index), Slender Amaranth” value in test [6] was 5 (90% or more of herbicidal effect and crop phytotoxicity). Also, in test [7], the “herbicidal effect (index), Velvetleaf” value is 5 (90% or more of herbicidal effect and crop phytotoxicity). Moreover, in test [8], the “herbicidal effect, Barnyardgrass” value was 5 (90% or more of herbicidal effect and crop phytotoxicity). Besides, in test [9], the “herbicidal effect, Green Foxtail” value is 5 (90% or more of herbicidal effect and crop phytotoxicity). Besides, the “herbicidal effect, Slender Amaranth” value in [10] was 5 (90% or more of herbicidal effect and crop phytotoxicity). Moreover, in test [11], the “herbicidal effect, Velvetleaf” value is 5 (90% or more of herbicidal effect and crop phytotoxicity).
On to `COCC(C)n1c(C(F)(F)F)ccc(C(=O)c2cnn(C)c2O)c1=O` (centres unmarked) [IV-36], for which, in [1], the “herbicidal effect, Scirpus juncoides Roxb.” value was 5 (90% or more of herbicidal effect and crop phytotoxicity). Also, the “herbicidal effect, Echinochloa oryzicola Vasing” value in test [2] was 5 (90% or more of herbicidal effect and crop phytotoxicity). In test [3], the “herbicidal effect, Monochoria vaginalis” value is 5 (90% or more of herbicidal effect and crop phytotoxicity). Also, in test [4], the “herbicidal effect (index), Barnyardgrass” value was 5 (90% or more of herbicidal effect and crop phytotoxicity). Further, the “herbicidal effect (index), Green Foxtail” value in [5] is 3 (50 to less than 70% of herbicidal effect and crop phytotoxicity). In test [6], the “herbicidal effect (index), Slender Amaranth” value was 5 (90% or more of herbicidal effect and crop phytotoxicity). Further, the “herbicidal effect (index), Velvetleaf” value in test [7] was 5 (90% or more of herbicidal effect and crop phytotoxicity). For the same compound, the “herbicidal effect, Barnyardgrass” value in test [8] is 5 (90% or more of herbicidal effect and crop phytotoxicity). In addition, the “herbicidal effect, Green Foxtail” value in test [9] is 5 (90% or more of herbicidal effect and crop phytotoxicity). Moreover, in test [10], the “herbicidal effect, Slender Amaranth” value is 5 (90% or more of herbicidal effect and crop phytotoxicity). The “herbicidal effect, Velvetleaf” value in test [11] was 5 (90% or more of herbicidal effect and crop phytotoxicity).
On to `CCCS(=O)(=O)Oc1c(C(=O)c2ccc(C(F)(F)F)n(C(C)COC)c2=O)cnn1C` (centres unmarked) [IV-37], for which the “herbicidal effect, Scirpus juncoides Roxb.” value in test [1] was 5 (90% or more of herbicidal effect and crop phytotoxicity). Further, in test [2], the “herbicidal effect, Echinochloa oryzicola Vasing” value is 5 (90% or more of herbicidal effect and crop phytotoxicity). In addition, the “herbicidal effect, Monochoria vaginalis” value in test [3] was 5 (90% or more of herbicidal effect and crop phytotoxicity). Moreover, the “herbicidal effect (index), Barnyardgrass” value in test [4] was 5 (90% or more of herbicidal effect and crop phytotoxicity). Moreover, the “herbicidal effect (index), Green Foxtail” value in test [5] was 5 (90% or more of herbicidal effect and crop phytotoxicity). The “herbicidal effect (index), Slender Amaranth” value in test [6] is 5 (90% or more of herbicidal effect and crop phytotoxicity). Besides, in [7], the “herbicidal effect (index), Velvetleaf” value was 5 (90% or more of herbicidal effect and crop phytotoxicity). Besides, in [8], the “herbicidal effect, Barnyardgrass” value is 5 (90% or more of herbicidal effect and crop phytotoxicity). For the same compound, in [9], the “herbicidal effect, Green Foxtail” value is 3 (50 to less than 70% of herbicidal effect and crop phytotoxicity). For the same compound, in [10], the “herbicidal effect, Slender Amaranth” value was 5 (90% or more of herbicidal effect and crop phytotoxicity). Besides, the “herbicidal effect, Velvetleaf” value in [11] is 5 (90% or more of herbicidal effect and crop phytotoxicity).
Consider `COC(C)Cn1c(C(F)(F)F)ccc(C(=O)c2cnn(C)c2O)c1=O` (centres unmarked) [IV-38], for which the “herbicidal effect, Scirpus juncoides Roxb.” value in test [1] is 5 (90% or more of herbicidal effect and crop phytotoxicity). The “herbicidal effect, Echinochloa oryzicola Vasing” value in [2] was 5 (90% or more of herbicidal effect and crop phytotoxicity). In addition, the “herbicidal effect, Monochoria vaginalis” value in test [3] was 5 (90% or more of herbicidal effect and crop phytotoxicity). The “herbicidal effect (index), Barnyardgrass” value in test [4] was 5 (90% or more of herbicidal effect and crop phytotoxicity). Also, the “herbicidal effect (index), Green Foxtail” value in test [5] was 4 (70 to less than 90% of herbicidal effect and crop phytotoxicity). Also, the “herbicidal effect (index), Slender Amaranth” value in [6] is 5 (90% or more of herbicidal effect and crop phytotoxicity). For the same compound, the “herbicidal effect (index), Velvetleaf” value in [7] was 5 (90% or more of herbicidal effect and crop phytotoxicity). For the same compound, the “herbicidal effect, Barnyardgrass” value in [8] was 5 (90% or more of herbicidal effect and crop phytotoxicity). In addition, in test [9], the “herbicidal effect, Green Foxtail” value is 5 (90% or more of herbicidal effect and crop phytotoxicity). In test [10], the “herbicidal effect, Slender Amaranth” value is 5 (90% or more of herbicidal effect and crop phytotoxicity). For the same compound, the “herbicidal effect, Velvetleaf” value in [11] is 5 (90% or more of herbicidal effect and crop phytotoxicity).
For the compound `CCCS(=O)(=O)Oc1c(C(=O)c2ccc(C(F)(F)F)n(CC(C)OC)c2=O)cnn1C` (centres unmarked) [IV-39], the “herbicidal effect, Scirpus juncoides Roxb.” value in test [1] is 5 (90% or more of herbicidal effect and crop phytotoxicity). The “herbicidal effect, Echinochloa oryzicola Vasing” value in test [2] was 5 (90% or more of herbicidal effect and crop phytotoxicity). Further, the “herbicidal effect, Monochoria vaginalis” value in test [3] is 5 (90% or more of herbicidal effect and crop phytotoxicity). Also, the “herbicidal effect (index), Barnyardgrass” value in test [4] was 5 (90% or more of herbicidal effect and crop phytotoxicity). Moreover, in test [5], the “herbicidal effect (index), Green Foxtail” value was 3 (50 to less than 70% of herbicidal effect and crop phytotoxicity). Moreover, the “herbicidal effect (index), Slender Amaranth” value in test [6] is 4 (70 to less than 90% of herbicidal effect and crop phytotoxicity). Also, the “herbicidal effect (index), Velvetleaf” value in [7] is 4 (70 to less than 90% of herbicidal effect and crop phytotoxicity). Also, the “herbicidal effect, Barnyardgrass” value in test [8] is 5 (90% or more of herbicidal effect and crop phytotoxicity). Besides, the “herbicidal effect, Green Foxtail” value in test [9] was 3 (50 to less than 70% of herbicidal effect and crop phytotoxicity). In test [10], the “herbicidal effect, Slender Amaranth” value was 5 (90% or more of herbicidal effect and crop phytotoxicity). The “herbicidal effect, Velvetleaf” value in test [11] is 5 (90% or more of herbicidal effect and crop phytotoxicity).
